Assays:
[1] = test system: Wild Type S30 extract, E. coli strain MRE600 (tetracycline sensitive); test: E. coli in vitro transcription and protein translation, 35S-methionine incorporation (Table VIII)
[2] = test system: S. aureus UBMS 88-7 (tetK); test: MIC, agar dilution; type: cell-based; details: S. aureus UBMS 88-7 TetK; Table IA; unit assumed
[3] = test system: TetM S30 extract, derivative of E. coli MRE600 containing the tetM determinant; test: E. coli in vitro transcription and protein translation, 35S-methionine incorporation (Table VIII)
[4] = test system: S. haemolyticus AVAH 88-3; test: MIC, agar dilution; type: cell-based; details: S. hemolyticus AVHAH 88-3; Table IA; unit assumed
E. faecalis ATCC 29212 = test: MIC, agar dilution; type: cell-based; details: E. faecalis ATCC 29212; Table IA; unit assumed
[5] = test system: S. aureus ATCC 29213 (Sensitive); test: MIC, agar dilution; type: cell-based; details: S. aureus ATCC 29213; Table IA; unit assumed
[6] = test system: S. aureus UBMS 90-1 (tetM); test: MIC, agar dilution; type: cell-based; details: S. aureus UBMS 90-1 TetM; Table IA; unit assumed
S. aureus NEMC 8769/89-4 = test: MIC, agar dilution (Table IA); type: cell-based; details: unit assumed
E. coli UBMS 90-5 = test: MIC, agar dilution (Table IA); type: cell-based; details: unit assumed
[7] = test system: S. aureus UBMS 88-4 (Sensitive); test: MIC, agar dilution; type: cell-based; details: S. aureus UBMS 88-4; Table IA; unit assumed
E. faecalis 12201 = test: MIC, agar dilution; type: cell-based; details: Enterococcus 12201; Table IA; unit assumed
E. coli BAJ9003 = test: MIC, agar dilution (Table IA); type: cell-based; details: unit assumed
E. coli J2175 = test: MIC, agar dilution (Table IA); type: cell-based; details: unit assumed
[8] = test system: S. aureus IVES 1983 (meth. resistant); test: MIC, agar dilution; type: cell-based; details: S. aureus IVES 1983; Table IA; unit assumed
E. coli J3272 TetC = test: MIC, agar dilution (Table IA); type: cell-based; details: unit assumed
E. coli J3272 TetD = test: MIC, agar dilution (Table IA); type: cell-based; details: unit assumed
E. coli #311 (MP) = test: MIC, agar dilution (Table IA); type: cell-based; details: unit assumed
E. coli MC4100 TetB = test: MIC, agar dilution (Table IA); type: cell-based; details: unit assumed
[9] = test system: S. aureus UBMS 90-3 (Sensitive); test: MIC, agar dilution; type: cell-based; details: S. aureus UBMS 90-3; Table IA; unit assumed
[10] = test system: Ps. acruginosa ATCC 27853; test: MIC, agar dilution (Table IA); type: cell-based; details: unit assumed
[11] = test system: S. aureus UBMS 90-2 (tetM); test: MIC, agar dilution; type: cell-based; details: S. aureus UBMS 90-2 TetM; Table IA; unit assumed
[12] = test system: S. aureus Smith (Sensitive); test: MIC, agar dilution; type: cell-based; details: S. aureus SMITH (MP); Table IA; unit assumed
S. mariescens FDOR 8733 = test: MIC, agar dilution (Table IA); type: cell-based; details: unit assumed
[13] = test system: X. maltophilia NEMC 87210; test: MIC, agar dilution (Table IA); type: cell-based; details: unit assumed
[14] = test system: E. coli UBMS 89-2 (Sensitive); test: MIC, agar dilution; type: cell-based; details: E. coli UBMS 89-2 Tet Sens.; Table IA; unit assumed
[15] = test system: S. aureus UBMS 88-5 (tetM); test: MIC, agar dilution; type: cell-based; details: S. aureus UBMS 88-5 TetM; Table IA; unit assumed
E. coli J3272 Tet sens. = test: MIC, agar dilution (Table IA); type: cell-based; details: unit assumed
E. coli UBMS 88-1 (tetB) = test: MIC, agar dilution; type: cell-based; details: E. coli UBMS 88-1 TetB; Table IA; unit assumed
S. aureus ROSE (MP) = test: MIC, agar dilution (Table IA); type: cell-based; details: unit assumed
E. coli ATCC 25922 = test: MIC, agar dilution; type: cell-based; details: E. coli ATCC 25922; Table IA; unit assumed
E. coli PRP1 TetA = test: MIC, agar dilution (Table IA); type: cell-based; details: unit assumed
[16] = test system: S. aureus IVES 2943 (meth. resistant); test: MIC, agar dilution; type: cell-based; details: S. aureus IVES 2943; Table IA; unit assumed
E. coli UBMS 89-1 (tetM) = test: MIC, agar dilution; type: cell-based; details: E. coli UBMS 89-1 TetM; Table IA; unit assumed
E. coli UBMS 90-4 (tetM) = test: MIC, agar dilution; type: cell-based; details: E. coli UBMS 90-4 TetM; Table IA; unit assumed

Compound	Antibacterial activity (MIC) [2] [µg/mL]	Antibacterial activity (MIC) [4] [µg/mL]	Antibacterial activity (MIC) (E. faecalis ATCC 29212) [µg/mL]	Antibacterial activity (MIC) [5] [µg/mL]	Antibacterial activity (MIC) [6] [µg/mL]	Antibacterial activity (MIC) (S. aureus NEMC 8769/89-4) [µg/mL]	Antibacterial activity (MIC) (E. coli UBMS 90-5) [µg/mL]	Antibacterial activity (MIC) [7] [µg/mL]	Antibacterial activity (MIC) (E. faecalis 12201) [µg/mL]	Antibacterial activity (MIC) (E. coli BAJ9003) [µg/mL]	Antibacterial activity (MIC) (E. coli J2175) [µg/mL]	Antibacterial activity (MIC) [8] [µg/mL]	Antibacterial activity (MIC) (E. coli J3272 TetC) [µg/mL]	Antibacterial activity (MIC) (E. coli J3272 TetD) [µg/mL]	Antibacterial activity (MIC) (E. coli #311 (MP)) [µg/mL]	Antibacterial activity (MIC) (E. coli MC4100 TetB) [µg/mL]	Antibacterial activity (MIC) [9] [µg/mL]	Antibacterial activity (MIC) [10] [µg/mL]	Antibacterial activity (MIC) [11] [µg/mL]	Antibacterial activity (MIC) [12] [µg/mL]	other results
CNCC(=O)Nc1cc(N(C)C)c2c(c1O)C(=O)C1=C(O)[C@]3(O)C(=O)C(C(N)=O)=C(O)[C@@H](N(C)C)C3CC1C2.Cl.Cl (stereo partly drawn) [MM, [4S-(4alpha,12aalpha)]-4,7-Bis(dimethylamino)-1,4,4a,5,5a,6,11,12a-octahydro-3,10,12,12a-tetrahydroxy-9-[[(methylamino)acetyl]amino]-1,11-dioxo-2-naphthacenecarboxamide dihydrochloride]	16	1	0.25	1	1	0.5	1	0.5	0.25	0.25	1	16	8	0.05	1	1	0.5	16	0.5	0.5	% INHIBITION Wild Type S30 ([1]; 0.06 mg/ml): 95%; % INHIBITION Wild Type S30 ([1]; 0.2 mg/ml): 98%; % INHIBITION Wild Type S30 ([1]; 1.0 mg/ml): 99%; % INHIBITION TetM S30 ([3]; 0.06 mg/ml): 92%; % INHIBITION TetM S30 ([3]; 0.2 mg/ml): 97%; % INHIBITION TetM S30 ([3]; 1.0 mg/ml): 99%; Antibacterial activity (MIC) (S. mariescens FDOR 8733): 16 µg/mL; Antibacterial activity (MIC) [13]: 8 µg/mL; Antibacterial activity (MIC) [14]: 1 µg/mL; Antibacterial activity (MIC) [15]: 0.5 µg/mL; Antibacterial activity (MIC) (E. coli J3272 Tet sens.): 1 µg/mL; Antibacterial activity (MIC) (E. coli UBMS 88-1 (tetB)): 1 µg/mL; Antibacterial activity (MIC) (S. aureus ROSE (MP)): 32 µg/mL; Antibacterial activity (MIC) (E. coli ATCC 25922): 1 µg/mL; Antibacterial activity (MIC) (E. coli PRP1 TetA): 16 µg/mL; Antibacterial activity (MIC) [16]: 32 µg/mL; Antibacterial activity (MIC) (E. coli UBMS 89-1 (tetM)): 1 µg/mL
CN(C)c1cc(NC(=O)CNC2CC2)c(O)c2c1CC1CC3C(N(C)C)C(O)=C(C(N)=O)C(=O)C3(O)C(O)=C1C2=O.Cl.Cl (stereo not drawn) [QQ, [4S-(4alpha,12aalpha))-9[[(Cyclopropylamino)acetyl)amino]-4,7-Bis(dimethylamino)-1,4,4a,5,5a,6,11,12a-octahydro-3,10,12,12a-tetrahydroxy-1,11-dioxo-2-naphthacenecarboxamide dihydrochloride]	4	2	0.25	0.5	0.5	0.12	2	0.5	0.5	0.25	2	8	8	2	2	2	0.5	> 32	0.5	0.25	% INHIBITION Wild Type S30 ([1]; 0.06 mg/ml): 92%; % INHIBITION Wild Type S30 ([1]; 0.2 mg/ml): 97%; % INHIBITION Wild Type S30 ([1]; 1.0 mg/ml): 99%; % INHIBITION TetM S30 ([3]; 0.06 mg/ml): 85%; % INHIBITION TetM S30 ([3]; 0.2 mg/ml): 95%; % INHIBITION TetM S30 ([3]; 1.0 mg/ml): 99%; Antibacterial activity (MIC) (E. coli UBMS 90-4 (tetM)): 2 µg/mL; Antibacterial activity (MIC) (S. mariescens FDOR 8733): > 32 µg/mL; Antibacterial activity (MIC) [13]: 2 µg/mL; Antibacterial activity (MIC) [14]: 2 µg/mL; Antibacterial activity (MIC) [15]: 0.5 µg/mL; Antibacterial activity (MIC) (E. coli J3272 Tet sens.): 2 µg/mL; Antibacterial activity (MIC) (E. coli UBMS 88-1 (tetB)): 4 µg/mL; Antibacterial activity (MIC) (S. aureus ROSE (MP)): 16 µg/mL; Antibacterial activity (MIC) (E. coli ATCC 25922): 2 µg/mL; Antibacterial activity (MIC) (E. coli PRP1 TetA): 32 µg/mL; Antibacterial activity (MIC) [16]: 16 µg/mL; Antibacterial activity (MIC) (E. coli UBMS 89-1 (tetM)): 1 µg/mL
Br.CC(Br)C(=O)Nc1cc(N(C)C)c2c(c1O)C(=O)C1=C(O)C3(O)C(=O)C(C(N)=O)=C(O)C(N(C)C)C3CC1C2 (stereo not shown) [JJJ]	16	16	16	4	16	4	> 32	8	16	4	> 32	32	> 32	> 32	> 32	> 32	2	> 32	8	4	Antibacterial activity (MIC) (E. coli UBMS 90-4 (tetM)): > 32 µg/mL; Antibacterial activity (MIC) (S. mariescens FDOR 8733): > 32 µg/mL; Antibacterial activity (MIC) [13]: 16 µg/mL; Antibacterial activity (MIC) [14]: > 32 µg/mL; Antibacterial activity (MIC) [15]: 8 µg/mL; Antibacterial activity (MIC) (E. coli J3272 Tet sens.): > 32 µg/mL; Antibacterial activity (MIC) (E. coli UBMS 88-1 (tetB)): > 32 µg/mL; Antibacterial activity (MIC) (S. aureus ROSE (MP)): > 32 µg/mL; Antibacterial activity (MIC) (E. coli ATCC 25922): > 32 µg/mL; Antibacterial activity (MIC) (E. coli PRP1 TetA): > 32 µg/mL; Antibacterial activity (MIC) [16]: 32 µg/mL; Antibacterial activity (MIC) (E. coli UBMS 89-1 (tetM)): 32 µg/mL
CN(C)c1cc(NC(=O)CN2CCC2)c(O)c2c1CC1CC3C(N(C)C)C(O)=C(C(N)=O)C(=O)C3(O)C(O)=C1C2=O (stereo not drawn) [LLL, (7S-(7alpha,10aalpha)]-N-[9-(Aminocarbonyl)-4,7-bis(dimethylamino)-5,5a,6,6a,7,10,10a,12-octahydro-1,8,10a,11-tetrahydroxy-10,12-dioxo-2-naphthacenyl]-1-azetidineacetamide]	2	0.25	0.25	0.25	0.25	0.12	0.25	0.25	0.25	0.06	0.25	2	0.5	0.12	0.25	0.5	0.12	8	0.25	0.25	Antibacterial activity (MIC) (E. coli UBMS 90-4 (tetM)): 0.25 µg/mL; Antibacterial activity (MIC) (S. mariescens FDOR 8733): 2 µg/mL; Antibacterial activity (MIC) [13]: 1 µg/mL; Antibacterial activity (MIC) [14]: 0.5 µg/mL; Antibacterial activity (MIC) [15]: 0.25 µg/mL; Antibacterial activity (MIC) (E. coli J3272 Tet sens.): 0.25 µg/mL; Antibacterial activity (MIC) (E. coli UBMS 88-1 (tetB)): 0.5 µg/mL; Antibacterial activity (MIC) (S. aureus ROSE (MP)): 2 µg/mL; Antibacterial activity (MIC) (E. coli ATCC 25922): 0.25 µg/mL; Antibacterial activity (MIC) (E. coli PRP1 TetA): 1 µg/mL; Antibacterial activity (MIC) [16]: 2 µg/mL; Antibacterial activity (MIC) (E. coli UBMS 89-1 (tetM)): 0.25 µg/mL
